# Molecular target: T1, human factor XIIIa (Homo sapiens, UniProt P00488)
# T1 sequence (P00488 39-732 limits assumed): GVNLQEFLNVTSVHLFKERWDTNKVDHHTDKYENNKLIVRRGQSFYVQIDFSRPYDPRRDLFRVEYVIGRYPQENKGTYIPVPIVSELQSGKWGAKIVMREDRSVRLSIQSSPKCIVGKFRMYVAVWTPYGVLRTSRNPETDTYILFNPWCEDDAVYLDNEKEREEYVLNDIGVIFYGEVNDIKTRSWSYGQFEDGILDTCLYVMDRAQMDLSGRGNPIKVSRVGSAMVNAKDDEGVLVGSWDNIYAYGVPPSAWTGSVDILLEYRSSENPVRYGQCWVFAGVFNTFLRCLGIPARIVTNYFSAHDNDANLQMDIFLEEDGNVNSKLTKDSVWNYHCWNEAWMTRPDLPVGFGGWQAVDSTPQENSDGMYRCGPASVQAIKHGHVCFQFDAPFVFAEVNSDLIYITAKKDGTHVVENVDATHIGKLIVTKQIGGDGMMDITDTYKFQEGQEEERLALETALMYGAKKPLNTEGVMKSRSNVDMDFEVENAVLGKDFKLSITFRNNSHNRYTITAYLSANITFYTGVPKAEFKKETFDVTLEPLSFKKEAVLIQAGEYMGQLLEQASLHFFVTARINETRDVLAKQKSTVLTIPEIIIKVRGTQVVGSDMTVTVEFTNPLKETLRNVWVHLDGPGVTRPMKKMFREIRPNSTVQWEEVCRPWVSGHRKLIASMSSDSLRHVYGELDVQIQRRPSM
# Test: bi-substrate, fluorescence-based trans-glutamination assay
# Format: biochemical
# Settings: pH 7.4, 37° C., 10 min incubation, N,N-dimethylcasein and dansylcadaverine substrates; read-out: FXIIIa IC50
# Experimental: To evaluate the effect of inhibitor on human factor XIIIa (and other transglutaminases), a bi-substrate, fluorescence-based trans-glutamination assay was performed. Generally, 1 μL of inhibitor was diluted with 87 μL of pH 7.4 buffer (50 mM Tris-HCl, 1 mM CaCl2, 100 mM NaCl, and 2 mg/mL N,N-dimethylcasein) and 5 μL dithiothreitol (20 mM) at 37° C. followed by the addition of 2 μL of human factor XIIIa (0.3 μM) and incubation for 10 min. The activity of factor XIIIa was monitored following the addition of 5 μL of dansylcadaverine (2 mM) by measuring the initial rate of increase in fluorescence emission (λEx.=360 nm and λEm.=490 nm). Relative residual factor XIIIa activity at each concentration of the inhibitor was calculated from the ratio of factor XIIIa activity in the presence and absence of the inhibitor. Logistic Eq. 1 was used to fit the concentration dependence of residual […] activity so as to obtain the potency (IC50) and efficacy (ΔY %) of inhibition.
# In this equation, Y is the ratio of residual […] activity in the presence of inhibitor to that in its absence, YM and Y0 are the maximum and minimum possible values of the fractional residual factor XIIIa activity, IC50 is the concentration of the inhibitor that leads to 50% inhibition of enzyme activity, and HS is the Hill slope. YM, Y0, IC50, and HS values are determined by nonlinear curve fitting of the data. The data is shown in FIG. 2 (top panel) and Table 1 below: […]
row,IC50 [µM],Compound
1,105,"C=C(CC)C(=O)c1ccc(OCC(=O)O)c(Cl)c1Cl [Formula II, 2-(2,3-dichloro-4-(2-methylenebutanoyl)phenoxy)acetic acid]"
2,92,"C=C(CC)C(=O)c1ccc(OCC(=O)OC)c(Cl)c1Cl [Formula III, methyl 2-(2,3-dichloro-4-(2-methylenebutanoyl)phenoxy)acetate]"
3,83,"C=CC(=O)c1ccc(OCC(=O)O)c(Cl)c1Cl [Formula VII, 2-(4-acryloyl-2,3-dichlorophenoxy)acetic acid]"

# Second part, the molecule before the results:
row,Compound,IC50 [µM]
1,"C=C(CC)C(=O)c1ccc(OCC(=O)NC)c(Cl)c1Cl [Formula IV, 2-(2,3-dichloro-4-(2-methylenebutanoyl)phenoxy)-N-methylacetamide]",100
2,"C=C(CC)C(=O)c1ccc(OCC(=O)N(C)C)c(Cl)c1Cl [Formula V, 2-(2,3-dichloro-4-(2-methylenebutanoyl)phenoxy)-N,N-dimethylacetamide]",75
3,"C=C(CC)C(=O)c1c(Cl)cc(OCC(=O)O)cc1Cl [Formula VI, 2-(3,5-dichloro-4-(2-methylenebutanoyl)phenoxy)acetic acid]",51
4,"C=CC(=O)c1c(Cl)cc(OCC(=O)N(C)C)cc1Cl [Formula VIII, 2-(4-acryloyl-3,5-dichlorophenoxy)-N,N-dimethylacetamide]",24

# From patent publication US20240010602A1, “PHENYL UNSATURATED KETONES AS HUMAN FACTOR XIIIA INHIBITORS FOR TREATMENT OF THROMBOEMBOLIC DISEASES” (Xavier University of Louisiana, priority 2022, published 2024)
